The NIST ThermoML archive (doi:10.1016/j.fluid.2016.02.009)
± gives the expanded uncertainty stated by the source.

Details: Liquid, Vibrating tube method

CCCOCCC [dipropyl ether]
Details | mass density [kg/m3]
283.15 K, 100 kPa | 757.39 ± 0.3
283.15 K, 5000 kPa | 762.38 ± 0.33
283.15 K, 10000 kPa | 767.05 ± 0.36
283.15 K, 15000 kPa | 771.45 ± 0.39
283.15 K, 20000 kPa | 775.62 ± 0.43
283.15 K, 25000 kPa | 779.52 ± 0.46
283.15 K, 30000 kPa | 783.28 ± 0.49
283.15 K, 35000 kPa | 786.9 ± 0.53
283.15 K, 40000 kPa | 790.38 ± 0.56
283.15 K, 45000 kPa | 793.67 ± 0.6
283.15 K, 50000 kPa | 796.87 ± 0.63
283.15 K, 55000 kPa | 800.02 ± 0.66
283.15 K, 60000 kPa | 802.99 ± 0.69
283.15 K, 65000 kPa | 805.87 ± 0.72
288.15 K, 100 kPa | 752.52 ± 0.3
288.15 K, 5000 kPa | 757.69 ± 0.33
288.15 K, 10000 kPa | 762.5 ± 0.36
288.15 K, 15000 kPa | 767.01 ± 0.4
288.15 K, 20000 kPa | 771.21 ± 0.43
288.15 K, 25000 kPa | 775.22 ± 0.46
288.15 K, 30000 kPa | 779.05 ± 0.49
288.15 K, 35000 kPa | 782.73 ± 0.53
288.15 K, 40000 kPa | 786.26 ± 0.57
288.15 K, 45000 kPa | 789.68 ± 0.6
288.15 K, 50000 kPa | 792.99 ± 0.64
288.15 K, 55000 kPa | 796.16 ± 0.67
288.15 K, 60000 kPa | 799.26 ± 0.7
288.15 K, 65000 kPa | 802.29 ± 0.73
293.15 K, 100 kPa | 747.63 ± 0.3
293.15 K, 5000 kPa | 752.98 ± 0.33
293.15 K, 10000 kPa | 757.94 ± 0.36
293.15 K, 15000 kPa | 762.58 ± 0.4
293.15 K, 20000 kPa | 766.89 ± 0.43
293.15 K, 25000 kPa | 771.01 ± 0.46
293.15 K, 30000 kPa | 774.94 ± 0.5
293.15 K, 35000 kPa | 778.69 ± 0.54
293.15 K, 40000 kPa | 782.3 ± 0.57
293.15 K, 45000 kPa | 785.81 ± 0.61
293.15 K, 50000 kPa | 789.18 ± 0.64
293.15 K, 55000 kPa | 792.44 ± 0.68
293.15 K, 60000 kPa | 795.56 ± 0.71
293.15 K, 65000 kPa | 798.64 ± 0.74
298.15 K, 100 kPa | 742.71 ± 0.3
298.15 K, 5000 kPa | 748.24 ± 0.33
298.15 K, 10000 kPa | 753.37 ± 0.37
298.15 K, 15000 kPa | 758.15 ± 0.4
298.15 K, 20000 kPa | 762.57 ± 0.43
298.15 K, 25000 kPa | 766.81 ± 0.47
298.15 K, 30000 kPa | 770.85 ± 0.5
298.15 K, 35000 kPa | 774.71 ± 0.54
298.15 K, 40000 kPa | 778.42 ± 0.58
298.15 K, 45000 kPa | 781.98 ± 0.62
298.15 K, 50000 kPa | 785.42 ± 0.65
298.15 K, 55000 kPa | 788.74 ± 0.69
298.15 K, 60000 kPa | 791.97 ± 0.72
298.15 K, 65000 kPa | 795.06 ± 0.75
303.15 K, 100 kPa | 737.77 ± 0.3
303.15 K, 5000 kPa | 743.49 ± 0.33
303.15 K, 10000 kPa | 748.78 ± 0.37
303.15 K, 15000 kPa | 753.68 ± 0.4
303.15 K, 20000 kPa | 758.26 ± 0.44
303.15 K, 25000 kPa | 762.61 ± 0.47
303.15 K, 30000 kPa | 766.76 ± 0.51
303.15 K, 35000 kPa | 770.7 ± 0.55
303.15 K, 40000 kPa | 774.48 ± 0.59
303.15 K, 45000 kPa | 778.13 ± 0.62
303.15 K, 50000 kPa | 781.64 ± 0.66
303.15 K, 55000 kPa | 785.01 ± 0.69
303.15 K, 60000 kPa | 788.28 ± 0.73
303.15 K, 65000 kPa | 791.45 ± 0.76
308.15 K, 100 kPa | 732.8 ± 0.3
308.15 K, 5000 kPa | 738.69 ± 0.33
308.15 K, 10000 kPa | 744.18 ± 0.37
308.15 K, 15000 kPa | 749.22 ± 0.4
308.15 K, 20000 kPa | 753.95 ± 0.44
308.15 K, 25000 kPa | 758.41 ± 0.48
308.15 K, 30000 kPa | 762.65 ± 0.51
308.15 K, 35000 kPa | 766.7 ± 0.55
308.15 K, 40000 kPa | 770.6 ± 0.59
308.15 K, 45000 kPa | 774.31 ± 0.63
308.15 K, 50000 kPa | 777.92 ± 0.67
308.15 K, 55000 kPa | 781.37 ± 0.7
308.15 K, 60000 kPa | 784.7 ± 0.74
308.15 K, 65000 kPa | 787.86 ± 0.77
313.15 K, 100 kPa | 727.8 ± 0.3
313.15 K, 5000 kPa | 733.9 ± 0.33
313.15 K, 10000 kPa | 739.57 ± 0.37
313.15 K, 15000 kPa | 744.77 ± 0.41
313.15 K, 20000 kPa | 749.62 ± 0.44
313.15 K, 25000 kPa | 754.2 ± 0.48
313.15 K, 30000 kPa | 758.55 ± 0.52
313.15 K, 35000 kPa | 762.71 ± 0.56
313.15 K, 40000 kPa | 766.68 ± 0.6
313.15 K, 45000 kPa | 770.47 ± 0.64
313.15 K, 50000 kPa | 774.17 ± 0.67
313.15 K, 55000 kPa | 777.67 ± 0.71
313.15 K, 60000 kPa | 781.06 ± 0.75
313.15 K, 65000 kPa | 784.29 ± 0.78
318.15 K, 100 kPa | 722.77 ± 0.3
318.15 K, 5000 kPa | 729.04 ± 0.34
318.15 K, 10000 kPa | 735.01 ± 0.37
318.15 K, 15000 kPa | 740.33 ± 0.41
318.15 K, 20000 kPa | 745.32 ± 0.45
318.15 K, 25000 kPa | 750.04 ± 0.48
318.15 K, 30000 kPa | 754.51 ± 0.52
318.15 K, 35000 kPa | 758.76 ± 0.57
318.15 K, 40000 kPa | 762.84 ± 0.61
318.15 K, 45000 kPa | 766.72 ± 0.64
318.15 K, 50000 kPa | 770.47 ± 0.68
318.15 K, 55000 kPa | 774.07 ± 0.72
318.15 K, 60000 kPa | 777.53 ± 0.75
318.15 K, 65000 kPa | 780.73 ± 0.79
323.15 K, 100 kPa | 717.7 ± 0.3
323.15 K, 5000 kPa | 724.25 ± 0.34
323.15 K, 10000 kPa | 730.31 ± 0.37
323.15 K, 15000 kPa | 735.84 ± 0.41
323.15 K, 20000 kPa | 741 ± 0.45
323.15 K, 25000 kPa | 745.84 ± 0.49
323.15 K, 30000 kPa | 750.43 ± 0.53
323.15 K, 35000 kPa | 754.79 ± 0.57
323.15 K, 40000 kPa | 758.96 ± 0.61
323.15 K, 45000 kPa | 762.93 ± 0.65
323.15 K, 50000 kPa | 766.76 ± 0.69
323.15 K, 55000 kPa | 770.41 ± 0.73
323.15 K, 60000 kPa | 773.95 ± 0.76
323.15 K, 65000 kPa | 777.21 ± 0.8
328.15 K, 100 kPa | 712.59 ± 0.3
328.15 K, 5000 kPa | 719.28 ± 0.34
328.15 K, 10000 kPa | 725.68 ± 0.38
328.15 K, 15000 kPa | 731.37 ± 0.41
328.15 K, 20000 kPa | 736.67 ± 0.45
328.15 K, 25000 kPa | 741.66 ± 0.49
328.15 K, 30000 kPa | 746.37 ± 0.53
328.15 K, 35000 kPa | 750.85 ± 0.58
328.15 K, 40000 kPa | 755.1 ± 0.62
328.15 K, 45000 kPa | 759.16 ± 0.66
328.15 K, 50000 kPa | 763.06 ± 0.7
328.15 K, 55000 kPa | 766.79 ± 0.73
328.15 K, 60000 kPa | 770.38 ± 0.77
328.15 K, 65000 kPa | 773.71 ± 0.81
333.15 K, 100 kPa | 707.45 ± 0.3
333.15 K, 5000 kPa | 714.57 ± 0.34
333.15 K, 10000 kPa | 721.03 ± 0.38
333.15 K, 15000 kPa | 726.88 ± 0.42
333.15 K, 20000 kPa | 732.34 ± 0.46
333.15 K, 25000 kPa | 737.47 ± 0.49
333.15 K, 30000 kPa | 742.3 ± 0.54
333.15 K, 35000 kPa | 746.89 ± 0.58
333.15 K, 40000 kPa | 751.24 ± 0.62
333.15 K, 45000 kPa | 755.35 ± 0.67
333.15 K, 50000 kPa | 759.32 ± 0.7
333.15 K, 55000 kPa | 763.16 ± 0.74
333.15 K, 60000 kPa | 766.84 ± 0.78
333.15 K, 65000 kPa | 770.23 ± 0.82
